Test results reported in US9828576B2, “Cell culture” (National University of Singapore, priority 2012, dated 2017).
Entries after “also recorded” stand apart in the source; their conditions may differ.

Tested on: bile canaliculi of hepatocyte couplets
Assay: Bile canaliculi (BC) morphology of hepatocyte couplets in F/F microwells after drug treatment (F-actin staining, confocal imaging)
Assay type: cell-based, rat
Details: for degree of folding r of BC / vertical aspect ratio i of BC: F/F microwells with drug, compared with control F/F microwells (FIG. 6D); for BC morphology: hepatocytes in F/F microwells
Procedure: For control, hepatocytes cultured for 48 hours in microwells were fixed in 4% para-formaldehyde (PFA) for 30 minutes. For ±Blebbistatin (Merck, 203390) or Y27632 (Sigma, Y0503) treatments, drugs were added 4 h before fixation, while soluble RGD (Sigma, G5646) was incubated with hepatocytes overnight. After fixation, the cells were rinsed by PBS and permeabilized for 30 min in TBST (0.2% Triton-X in TBS). The permeabilized cells were blocked with 1% BSA in TBST for 4 h and incubated overnight with pan-Cadherin antibody (sigma, C1821) and anti-ZO-1 antibody (life technology, 61-7300) at 4° C. as instructed in manuals. After rinsed with TBST, the cells were incubated in secondary antibodies (Life Technology, A10040 and A-31571) and phalloidin-alexa 488 (Life Technology, A12379) for 1 h in dark at room temperature. After rinsed with TBST again and incubated shortly with DAPI (Sigma, D9564), cells were mounted in mounting medium (DAKO, S3023). 3D stack of confocal microscopy images were acquired with 100×NA1.4 oil lens on a Nikon A1R Confocal Microscope.
The selected slices of image stacks were reconstructed as maximum intensity projection or orthogonal section view. Manual segmentation was applied based on F-actin signal, because F-actin provides a better definition of BC boundaries, compared with ZO-1 (FIG. 11). Several features, such as parameter, thickness, horizontal spin size and area of bile canaliculi, were extracted subsequently.
When cells adhered to the side of microwell only (F/P configuration), hepatocytes positioned side by side (FIG. 5C, 5D). […] To confirm the importance of cell-ECM adhesion in obtaining flat tubular BC, we treated the hepatocytes in F/F microwells on day 1 with soluble RGD peptides (250 μM, overnight) that antagonized the integrin-mediated cell-ECM adhesion while keeping the chemical signalling unperturbed. Indeed, as cells detached from the microwells, their BC rounded up to be morphologically equivalent to those observed in the P/F case (FIG. 6A).
Therefore, we tested whether actomyosin contractility was required for the differential control of BC morphology by the spatial organization of cell-ECM adhesion. […] The resulting morphologies were similar to those obtained in the P/F configuration (FIG. 6B, 6C).
The BC morphologies in different conditions were quantitatively assessed by two dimensionless parameters: the degree of folding and vertical aspect ratio. The degree of folding r=P^2/(4πA) was evaluated by measuring the ratio of the BC projected perimeter P to the projected area A. This morphological index r ranges from 1 (circle) upward (folded tubular structures). The vertical aspect ratio i was calculated as the ratio of the BC maximal height over maximal elongation in the XY plane. Higher vertical aspect ratio represents a thicker BC.

Row | Structure (SMILES) | degree of folding r of BC | vertical aspect ratio i of BC | BC morphology (blebbistatin 100 μM for 4 hours) | BC morphology (blebbistatin 100 μM for 4 hours, listed as blebbistatin +/−) | BC morphology (Y27632 10 μM for 4 hours)
1 | Cc1ccc2c(c1)C(=O)C1(O)CCN(c3ccccc3)C1=N2 (stereo not shown) [blebbistatin] | lower | higher | rounded up | converted tubular BC into spherical ones | –
2 | C[C@@H](N)[C@H]1CC[C@H](C(=O)Nc2ccncc2)CC1 [Y27632] | lower | higher | – | – | rounded up; also recorded: converted tubular BC into spherical ones
